Measured values published in PubChem BioAssay AID651592 (Sanford-Burnham Center for Chemical Genomics, 2012).

Columns and labels:
[1] = inhibitors of NFkB activation in CF airway cells, SAR follow-up, KKLEB cells, panel, IL8 HTRF, NFkB-GFP (AID 651592); settings: PAF/TNFa-induced NFkB-GFP / IL8 HTRF, CF-PAF assay;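 further: immortalized cystic fibrosis airway epithelial KKLEB cells with an NF-kB GFP reporter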
[2] = system: IL8; experiment: as above; settings: PAF/TNFa-induced NFkB-GFP / IL8 HTRF, mean of runs, mean IC50 across panel replicates
[3] = target: Interleukin-8 (Homo sapiens) (UniProt P10145); experiment: as above; settings: PAF/TNFa-induced NFkB-GFP / IL8 HTRF
[4] = mean of runs, mean IC50 across panel replicates

Chain of Interleukin-8 (Homo sapiens) (P10145 whole entry, looked up): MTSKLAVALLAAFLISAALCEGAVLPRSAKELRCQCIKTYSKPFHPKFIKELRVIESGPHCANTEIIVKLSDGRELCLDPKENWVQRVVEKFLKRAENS

Row | SMILES | IC50 [1, 4] [µM] | IC50 ([1]; run 1) [µM] | IC50 ([1]; run 2) [µM] | IC50 ([1]; run 3) [µM] | IC50 ([1]; run 4) [µM] | IC50 ([1]; run 5) [µM] | IC50 ([1]; run 6) [µM] | IC50 ([2]; PAF-induced) [µM] | IC50 ([2]; TNFa-induced) [µM] | IC50 ([3]; IL8, PAF-induced, run 1) [µM] | IC50 ([3]; IL8, PAF-induced, run 2) [µM] | IC50 ([3]; IL8, PAF-induced, run 3) [µM] | IC50 ([3]; IL8, PAF-induced, run 4) [µM] | IC50 ([3]; IL8, PAF-induced, run 5) [µM] | IC50 ([3]; IL8, PAF-induced, run 6) [µM] | IC50 ([3]; IL8, TNFa-induced, run 1) [µM] | IC50 ([3]; IL8, TNFa-induced, run 2) [µM] | IC50 ([3]; IL8, TNFa-induced, run 3) [µM] | IC50 ([3]; IL8, TNFa-induced, run 4) [µM] | IC50 ([3]; IL8, TNFa-induced, run 5) [µM] | other results
1 | Cc1ccc(NCc2cc3c(C(C)(C)C)nn(-c4ccccc4)c3[nH]c2=O)cc1 | 39.7 | > 66 | 26 | 43.2 | > 66 | 13.4 | 23.8 | 4.49 | > 66 | 2.68 | 3.24 | 3.47 | 3.84 | 5.83 | 7.9 | > 66 | > 66 | > 66 | > 66 | > 66 | IC50 ([3]; IL8, TNFa-induced, run 6): > 66 µM
2 | CCOc1ccc(NCc2cc3c(C(C)(C)C)nn(-c4ccc(Cl)cc4)c3[nH]c2=O)cc1 | 17.9 | 9.61 | 10.1 | 10.2 | > 66 | 0.52 | 10.8 | 0.228 | > 66 | 0.216 | 0.248 | 0.277 | 0.149 | 0.236 | 0.246 | > 66 | > 66 | > 66 | > 66 | > 66 | IC50 ([3]; IL8, TNFa-induced, run 6): > 66 µM
3 | O=C(Nc1ccc(N2CCN(C(=O)c3ccc(F)cc3)CC2)cc1)c1cccc(Br)c1 | 43.9 | 21.5 | 21.6 | 22.5 | > 66 | > 66 | > 66 | > 66 | > 66 | > 66 | > 66 | > 66 | > 66 | > 66 | > 66 | > 66 | > 66 | > 66 | > 66 | > 66 | IC50 ([3]; IL8, TNFa-induced, run 6): > 66 µM

Continued, in another order:

Row | IC50 [1, 4] [µM] | IC50 ([1]; run 1) [µM] | IC50 ([1]; run 2) [µM] | IC50 ([1]; run 3) [µM] | IC50 ([1]; run 4) [µM] | IC50 ([1]; run 5) [µM] | IC50 ([1]; run 6) [µM] | IC50 ([2]; PAF-induced) [µM] | IC50 ([2]; TNFa-induced) [µM] | IC50 ([3]; IL8, PAF-induced, run 1) [µM] | IC50 ([3]; IL8, PAF-induced, run 2) [µM] | IC50 ([3]; IL8, PAF-induced, run 3) [µM] | IC50 ([3]; IL8, PAF-induced, run 4) [µM] | IC50 ([3]; IL8, PAF-induced, run 5) [µM] | IC50 ([3]; IL8, PAF-induced, run 6) [µM] | IC50 ([3]; IL8, TNFa-induced, run 1) [µM] | IC50 ([3]; IL8, TNFa-induced, run 2) [µM] | IC50 ([3]; IL8, TNFa-induced, run 3) [µM] | IC50 ([3]; IL8, TNFa-induced, run 4) [µM] | IC50 ([3]; IL8, TNFa-induced, run 5) [µM] | SMILES | other results
4 | 25.3 | 3.68 | 4.18 | 4.81 | > 66 | > 66 | 7.26 | > 66 | > 66 | > 66 | > 66 | > 66 | > 66 | > 66 | > 66 | > 66 | > 66 | > 66 | > 66 | > 66 | O=C(Nc1ccc(N2CCN(C(=O)c3ccccc3Cl)CC2)cc1)c1cccnc1 | IC50 ([3]; IL8, TNFa-induced, run 6): > 66 µM
5 | > 66 | > 66 | > 66 | > 66 | > 66 | > 66 | > 66 | > 66 | > 66 | > 66 | > 66 | > 66 | > 66 | > 66 | > 66 | > 66 | > 66 | > 66 | > 66 | > 66 | O=C(Nc1ccc(N2CCN(C(=O)c3ccc(F)cc3)CC2)cc1)c1ccccc1 | IC50 ([3]; IL8, TNFa-induced, run 6): > 66 µM
6 | 50.5 | 30.5 | 31.9 | 42.5 | > 66 | > 66 | > 66 | > 66 | > 66 | > 66 | > 66 | > 66 | > 66 | > 66 | > 66 | > 66 | > 66 | > 66 | > 66 | > 66 | O=C(Nc1ccc(N2CCN(C(=O)c3ccccc3)CC2)cc1)c1ccccc1 | IC50 ([3]; IL8, TNFa-induced, run 6): > 66 µM
